This assay concerns BDF1 mice, P388 leukemia ip, median survival T/C. Briefly: NCI In Vivo Anticancer Drug Screen. Data for tumor model P388 Leukemia (intraperitoneal) in B6D2F1 (BDF1) mice. The settings on record: endpoint: median survival time, higher = longer survival. In outline:
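T/C = treated-group survival ÷ vehicle-control survival; tumour transplanted into mice before dosing.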

Where [1] appears, read: dose: 50.0 mg/kg/injection, schedule: Q01DX009 (ip), vehicle: saline with Tween-80.
Setting [2] is: dose: 200.0 mg/kg/injection, schedule: Q01DX009 (ip), vehicle: saline with Tween-80.
The mark [3] stands for this setting: dose: 100.0 mg/kg/injection, schedule: Q04DX003 (ip), vehicle: Klucel (hydroxypropylcellulose) (HPC).
Setting [4] is: dose: 100.0 mg/kg/injection, schedule: Q04DX003 (ip), vehicle: saline with Tween-80.
Setting [5] is: dose: 200.0 mg/kg/injection, schedule: Q04DX003 (ip), vehicle: Klucel (hydroxypropylcellulose) (HPC).
Setting [6] is: dose: 200.0 mg/kg/injection, schedule: Q04DX003 (ip), vehicle: saline with Tween-80.
[7] abbreviates: dose: 400.0 mg/kg/injection, schedule: Q04DX003 (ip), vehicle: Klucel (hydroxypropylcellulose) (HPC).
[8] abbreviates: dose: 400.0 mg/kg/injection, schedule: Q04DX003 (ip), vehicle: saline with Tween-80.
The mark [9] stands for this setting: dose: 100.0 mg/kg/injection, schedule: Q01DX009 (ip), vehicle: saline with Tween-80.
Where [10] appears, read: dose: 400.0 mg/kg/injection, schedule: Q01DX009 (ip), vehicle: saline with Tween-80.

The structures appear in SMILES notation. Values joined by “and” are separate entries in the source; they are usually repeats but may differ in a detail not shown here. Identical values can stand only once. Toxic doses and inconclusive results are not listed.

Regarding `CCCCCCCC(=O)OCC(=O)[C@]1(O)Cc2c(O)c3c(c(O)c2[C@@H](OC2CC(N)C(O)C(C)O2)C1)C(=O)c1c(OC)cccc1C3=O` (some centres not stated), the T/C was 204 % of control (dose: 0.5 mg/kg/injection, schedule: Q01DX009 (ip), vehicle: water); 254 % of control and 190 % of control (dose: 1.0 mg/kg/injection, schedule: Q01DX009 (ip), vehicle: water); 207 % of control (dose: 1.0 mg/kg/injection, schedule: Q04DX003 (ip), vehicle: water); 231 % of control and 311 % of control (dose: 2.0 mg/kg/injection, schedule: Q01DX009 (ip), vehicle: water); 264 % of control (dose: 2.0 mg/kg/injection, schedule: Q04DX003 (ip), vehicle: water); 116 % of control (dose: 2.5 mg/kg/injection, schedule: Q04DX003 (ip), vehicle: water). The T/C runs as follows: (dose: 2.88 mg/kg/injection, schedule: Q04DX003 (ip), vehicle: water) 215 % of control; (dose: 4.0 mg/kg/injection, schedule: Q01DX009 (ip), vehicle: water) 90 % of control; (dose: 4.0 mg/kg/injection, schedule: Q04DX003 (ip), vehicle: water) 271 % of control; (dose: 4.8 mg/kg/injection, schedule: Q04DX003 (ip), vehicle: water) 339 % of control; (dose: 10.0 mg/kg/injection, schedule: Q04DX003 (ip), vehicle: water) 174 % of control; (dose: 40.0 mg/kg/injection, schedule: Q04DX003 (ip), vehicle: water) 100 % of control.

For `O=C1CCCCCC1Cc1cc(O)c(CC2CCCCCC2=O)cc1O` (configuration not stated), the T/C under setting [1] is 96 % of control and the T/C under setting [2] was 97 % of control.

As for `CCN(CCNc1ccc(C)c2sc3cc(Cl)ccc3c(=O)c12)CC(C)O` (configuration not stated), the T/C was 109 % of control (dose: 100.0 mg/kg/injection, schedule: Q01DX009 (ip), vehicle: saline) and 104 % of control (dose: 200.0 mg/kg/injection, schedule: Q01DX009 (ip), vehicle: saline).

As for `O=C(NC(CO)C(=O)OCc1ccccc1)OCc1ccccc1` (configuration not stated), the T/C reads like this: under setting [3], 95 % of control; under setting [4], 100 % of control; under setting [5], 87 % of control; under setting [6], 100 % of control; under setting [7], 91 % of control; under setting [8], 100 % of control.

Turning to `COc1cc2cccccc-2cc1=O`, the T/C under setting [3] was 110 % of control, the T/C under setting [5] was 115 % of control and the T/C under setting [7] is 115 % of control.

For the compound `CCCCCCCCCCCCCCCCCC(=O)[O][Hg][c]1ccccc1`, the T/C was 100 % of control (dose: 5.0 mg/kg/injection, schedule: Q01DX009 (ip), vehicle: Klucel (hydroxypropylcellulose) (HPC)); 104 % of control (dose: 5.5 mg/kg/injection, schedule: Q01DX001 (ip), vehicle: Klucel (hydroxypropylcellulose) (HPC)); 104 % of control (dose: 10.0 mg/kg/injection, schedule: Q01DX009 (ip), vehicle: Klucel (hydroxypropylcellulose) (HPC)); 115 % of control (dose: 10.0 mg/kg/injection, schedule: Q01DX009 (ip), vehicle: other); 95 % of control (dose: 11.0 mg/kg/injection, schedule: Q01DX001 (ip), vehicle: Klucel (hydroxypropylcellulose) (HPC)); 115 % of control (dose: 14.0 mg/kg/injection, schedule: Q04DX003 (ip), vehicle: Klucel (hydroxypropylcellulose) (HPC)). In addition, the T/C is, setting by setting: (dose: 20.0 mg/kg/injection, schedule: Q01DX009 (ip), vehicle: Klucel (hydroxypropylcellulose) (HPC)) 109 % of control; (dose: 22.0 mg/kg/injection, schedule: Q04DX003 (ip), vehicle: Klucel (hydroxypropylcellulose) (HPC)) 120 % of control.

On to `Nc1cncc2ncc(-c3ccc(Cl)c(Cl)c3)nc12`, for which the T/C was 91 % of control (dose: 100.0 mg/kg/injection, schedule: Q01DX001 (ip), vehicle: saline sonified); 100 % of control (dose: 200.0 mg/kg/injection, schedule: Q01DX001 (ip), vehicle: saline sonified); 104 % of control (dose: 400.0 mg/kg/injection, schedule: Q01DX001 (ip), vehicle: saline sonified).

As to `NC(Cc1ccc(N(CCCl)CCCl)cc1)C(=O)O` (configuration not stated), the T/C runs as follows: (dose: 0.5 mg/kg/injection, schedule: Q01DX009 (ip), vehicle: Klucel (hydroxypropylcellulose) (HPC)) 179 % of control; (dose: 1.0 mg/kg/injection, schedule: Q01DX009 (ip), vehicle: Klucel (hydroxypropylcellulose) (HPC)) 222 % of control; (dose: 1.25 mg/kg/injection, schedule: Q01DX010 (ip), vehicle: saline) 181 % of control and 208 % of control; (dose: 2.0 mg/kg/injection, schedule: Q01DX009 (ip), vehicle: Klucel (hydroxypropylcellulose) (HPC)) 239 % of control; (dose: 2.0 mg/kg/injection, schedule: Q01DX010 (ip), vehicle: other) 300 % of control; (dose: 2.5 mg/kg/injection, schedule: Q01DX010 (ip), vehicle: saline) 209 % of control and 216 % of control. Further, the T/C is, setting by setting: (dose: 4.0 mg/kg/injection, schedule: Q01DX009 (ip), vehicle: Klucel (hydroxypropylcellulose) (HPC)) 256 % of control; (dose: 4.0 mg/kg/injection, schedule: Q01DX010 (ip), vehicle: other) 250 % of control; (dose: 5.0 mg/kg/injection, schedule: Q01DX010 (ip), vehicle: saline) 233 % of control and 286 % of control; (dose: 8.0 mg/kg/injection, schedule: Q01DX010 (ip), vehicle: other) 113 % of control; (dose: 10.0 mg/kg/injection, schedule: Q01DX010 (ip), vehicle: saline) 100 % of control; (dose: 16.0 mg/kg/injection, schedule: Q01DX010 (ip), vehicle: other) 90 % of control.

In the case of `COc1ccc(CN2CCN(Cc3ccc(OC)c(OC)c3)C2c2ccc(OC)c(OC)c2)cc1OC`, the T/C under setting [9] is 109 % of control; the T/C under setting [4] is 105 % of control; the T/C under setting [2] is 100 % of control; the T/C under setting [6] is 105 % of control; the T/C under setting [10] is 100 % of control; the T/C under setting [8] was 95 % of control.

As to `Cc1cccc(NC(=O)c2ccccc2Cl)c1C`, the T/C reads like this: under setting [4], 109 % of control; under setting [6], 90 % of control; under setting [8], 90 % of control.

For the compound `CCc1ccccc1NC(=O)N1CCOCC1`, the T/C was 94 % of control under setting [1], 102 % of control under setting [9] and 109 % of control under setting [2].

On to `COc1c(Br)cc(N=Cc2ccc(N(CCCl)CCCl)cc2C)cc1Br`, for which the T/C is 115 % of control (dose: 88.0 mg/kg/injection, schedule: Q01DX010 (ip), vehicle: carboxymethylcellulose (CMC)); 155 % of control (dose: 133.0 mg/kg/injection, schedule: Q01DX010 (ip), vehicle: carboxymethylcellulose (CMC)); 165 % of control (dose: 200.0 mg/kg/injection, schedule: Q01DX010 (ip), vehicle: carboxymethylcellulose (CMC)); 215 % of control (dose: 300.0 mg/kg/injection, schedule: Q01DX010 (ip), vehicle: carboxymethylcellulose (CMC)).

On to `O=C1OC(COCC#Cc2ccccc2)CN1c1ccccc1` (configuration not stated), for which the T/C reads like this: under setting [9], 104 % of control; (dose: 100.0 mg/kg/injection, schedule: Q04DX003 (ip), vehicle: saline) 92 % of control; under setting [2], 100 % of control; (dose: 200.0 mg/kg/injection, schedule: Q04DX003 (ip), vehicle: saline) 107 % of control; under setting [10], 100 % of control; (dose: 400.0 mg/kg/injection, schedule: Q04DX003 (ip), vehicle: saline) 92 % of control.

Turning to `S=C(NC1CCCCC1)NC1CCCCC1`, the T/C (dose: 50.0 mg/kg/injection, schedule: Q01DX009 (ip), vehicle: Klucel (hydroxypropylcellulose) (HPC)) is 113 % of control; the T/C (dose: 100.0 mg/kg/injection, schedule: Q01DX001 (ip), vehicle: Klucel (hydroxypropylcellulose) (HPC)) was 109 % of control; the T/C (dose: 100.0 mg/kg/injection, schedule: Q01DX009 (ip), vehicle: Klucel (hydroxypropylcellulose) (HPC)) is 86 % of control; the T/C (dose: 200.0 mg/kg/injection, schedule: Q01DX001 (ip), vehicle: Klucel (hydroxypropylcellulose) (HPC)) is 113 % of control; the T/C (dose: 200.0 mg/kg/injection, schedule: Q01DX009 (ip), vehicle: Klucel (hydroxypropylcellulose) (HPC)) is 100 % of control; the T/C (dose: 400.0 mg/kg/injection, schedule: Q01DX001 (ip), vehicle: Klucel (hydroxypropylcellulose) (HPC)) is 100 % of control.

As to `CC(=O)O.[Au].c1ccc([PH+](c2ccccc2)c2ccccc2)cc1`, the T/C under setting [4] is 110 % of control.

The values above are taken from PubChem BioAssay AID328 (DTP/NCI, 2004).
